Assays:
CypD [1] = target: T1, CypD (Homo sapiens, UniProt P30405); assay: CypD binding assay (competition fluorescence polarisation with fluorescein-labelled cyclosporin)
Method: The binding capacity of the compounds were measured using a competition Fluorescence-Polarisation based assay with fluorescine labelled cyclosporin. The protocol used was adapted from Hausch et al, Med Chem lett 2010, p 536.

CypD [2] = target: T1, CypD; assay: SPR binding; conditions: SPR surface; read-out: SPR CypD (KDSS)
Text: Binding was confirmed on an SPR surface using a protocol adapted from Mori et al., J. Biomolecular Screening, 2009 p 419.

T1 sequence (P30405 30-207): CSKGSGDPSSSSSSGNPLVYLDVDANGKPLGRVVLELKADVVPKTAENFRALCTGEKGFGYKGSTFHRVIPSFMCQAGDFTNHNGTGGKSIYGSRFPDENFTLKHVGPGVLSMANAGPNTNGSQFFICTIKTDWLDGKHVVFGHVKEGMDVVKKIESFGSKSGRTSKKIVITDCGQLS

Row | Compound | IC50 (CypD [1]) | Kd (CypD [2])
1 | CN(C(=O)CNC(=O)NCc1ccc2c(c1)[C@H]1C[C@@H](N2)[C@H](O)CO1)C1CCCC1 [Compound 20, N-cyclopentyl-2-(3-(((2R,3S,6R)-3-hydroxy-2,3,4,6-tetrahydro-1H-2,6-methanobenzo[c][1,5]oxazocin-8-yl)methyl)ureido)-N-methylacetamide] | 1 to 100 µM | 1 to 100 µM
2 | O=C(NCC(=O)N1CCCC1c1ccccn1)NCc1ccc2c(c1)[C@H]1C[C@@H](N2)[C@H](O)CO1 (stereo partly drawn) [Compound 9, 1-(((2R,3S,6R)-3-hydroxy-2,3,4,6-tetrahydro-1H-2,6-methanobenzo[c][1,5]oxazocin-8-yl)methyl)-3-(2-oxo-2-(2-(pyridin-2-yl)pyrrolidin-1-yl)ethyl)urea] | 1 to 100 µM | < 1 µM
3 | CCN1Cc2cc(CCC(=O)NCC(=O)N(C)[C@H](C)c3ccccc3)ccc2NCCC1=O [Compound 31, (R)-3-(5-ethyl-4-oxo-1,2,3,4,5,6-hexahydrobenzo[b][1,5]diazocin-8-yl)-N-(2-(methyl(1-phenylethyl)amino)-2-oxoethyl)propanamide] | 1 to 100 µM | 1 to 100 µM
4 | CCN1Cc2cc(CNC(=O)NCC(=O)N3CCC[C@H]3CO)ccc2NCCC1=O [Compound 22, 1-(5-Ethyl-4-oxo-1,2,3,4,5,6-hexahydro-benzo[b][1,5]diazocin-8-ylmethyl)-3-[2-((S)-2-hydroxymethyl-pyrrolidin-1-yl)-2-oxo-ethyl]-urea] | 1 to 100 µM | 1 to 100 µM
5 | CCN1Cc2cc(CNC(=O)NCC(=O)N3CCCC3c3ccccn3)ccc2NCCC1=O (stereo not drawn) [Compound 36, 1-(5-Ethyl-4-oxo-1,2,3,4,5,6-hexahydro-benzo[b][1,5]diazocin-8-ylmethyl)-3-[2-oxo-2-(2-pyridin-2-yl-pyrrolidin-1-yl)-ethyl]-urea] | 1 to 100 µM | 1 to 100 µM
6 | CCN1Cc2cc(CCC(=O)NCC(=O)N3CCC[C@@H]3c3ccccc3SC)ccc2NCCC1=O [Compound 11, 3-(5-Ethyl-4-oxo-1,2,3,4,5,6-hexahydro-benzo[b][1,5]diazocin-8-yl)-N-{2-[(R)-2-(2-methylsulfanyl-phenyl)-pyrrolidin-1-yl]-2-oxo-ethyl}-propionamide] | 1 to 100 µM | 1 to 100 µM
7 | CCN1Cc2cc(CCC(=O)NCC(=O)N3CCCC3c3ccccn3)ccc2NCCC1=O (stereo not drawn) [Compound 28, 3-(5-Ethyl-4-oxo-1,2,3,4,5,6-hexahydro-benzo[b][1,5]diazocin-8-yl)-N-[2-oxo-2-(2-pyridin-2-yl-pyrrolidin-1-yl)-ethyl]-propionamide] | 1 to 100 µM | 1 to 100 µM
8 | CCN1Cc2cc(CNC(=O)NCC(=O)N3CCC[C@@H]3C(F)(F)F)ccc2NCCC1=O [Compound 24, 1-(5-Ethyl-4-oxo-1,2,3,4,5,6-hexahydro-benzo[b][1,5]diazocin-8-ylmethyl)-3-[2-oxo-2-((R)-2-trifluoromethyl-pyrrolidin-1-yl)-ethyl]-urea] | 1 to 100 µM | 1 to 100 µM
9 | CCN1Cc2cc(CCC(=O)NCC(=O)N3CCCC3c3ccccc3C(F)(F)F)ccc2NCCC1=O (stereo not drawn) [Compound 19, 3-(5-Ethyl-4-oxo-1,2,3,4,5,6-hexahydro-benzo[b][1,5]diazocin-8-yl)-N-{2-oxo-2-[2-(2-trifluoromethyl-phenyl)-pyrrolidin-1-yl]-ethyl}-propionamide] | 1 to 100 µM | 1 to 100 µM
10 | CCN1Cc2cc(CCC(=O)NCC(=O)N3CCCC4(CCCCC4)C3)ccc2NCCC1=O [Compound 25, N-[2-(2-Aza-spiro[5.5]undec-2-yl)-2-oxo-ethyl]-3-(5-ethyl-4-oxo-1,2,3,4,5,6-hexahydro-benzo[b][1,5]diazocin-8-yl)-propionamide] | 1 to 100 µM | 1 to 100 µM
11 | C[C@H](c1ccccc1)N(C)C(=O)CNC(=O)NCc1ccc2c(c1)[C@H]1C[C@@H](N2)[C@H](O)CO1 [Compound 38, 2-(3-(((2R,3S,6R)-3-hydroxy-2,3,4,6-tetrahydro-1H-2,6-methanobenzo[c][1,5]oxazocin-8-yl)methyl)ureido)-N-methyl-N—((R)-1-phenylethyl)acetamide] | 1 to 100 µM | 1 to 100 µM
12 | CSc1ccccc1[C@H]1CCCN1C(=O)CCC(=O)NCc1ccc2c(c1)[C@H]1C[C@@H](N2)[C@H](O)CO1 [Compound 2, N-((1R,9R,10S)-10-Hydroxy-12-oxa-8-aza-tricyclo[7.3.1.02,7]trideca-2,4,6-trien-4-ylmethyl)-4-[(R)-2-(2-methylsulfanyl-phenyl)-pyrrolidin-1-yl]-4-oxo-butyramide] | < 1 µM | < 1 µM
13 | CSc1ccccc1[C@H]1CCCN1C(=O)CNC(=O)NC(C)c1ccc2c(c1)CCCC(=O)N2 (stereo partly drawn) [Compound 21, 1-{2-[(R)-2-(2-Methylsulfanyl-phenyl)-pyrrolidin-1-yl]-2-oxo-ethyl}-3-[1-(2-oxo-2,3,4,5-tetrahydro-1H-benzo[b]azepin-7-yl)-ethyl]-urea] | 1 to 100 µM | 1 to 100 µM
14 | CCN1Cc2cc(CCC(=O)N[C@H](C(=O)N3CCCC3)c3ccccc3)ccc2NCCC1=O [Compound 32, 3-(5-Ethyl-4-oxo-1,2,3,4,5,6-hexahydro-benzo[b][1,5]diazocin-8-yl)-N—((S)-2-oxo-1-phenyl-2-pyrrolidin-1-yl-ethyl)-propionamide] | 1 to 100 µM | 1 to 100 µM
15 | CSc1ccccc1[C@H]1CCCN1C(=O)CNC(=O)CCc1ccc2c(c1)[C@@H]1C[C@H](N2)[C@H](O)CO1 [Compound 23, 3-((2S,3S,6S)-3-hydroxy-2,3,4,6-tetrahydro-1H-2,6-methanobenzo[c][1,5]oxazocin-8-yl)-N-(2-((R)-2-(2-(methylthio)phenyl)pyrrolidin-1-yl)-2-oxoethyl)propanamide] | 1 to 100 µM | 1 to 100 µM
16 | CCN1Cc2cc(CCC(=O)NCC(=O)N3CCCC3)ccc2NCCC1=O [Compound 27, 3-(5-Ethyl-4-oxo-1,2,3,4,5,6-hexahydro-benzo[b][1,5]diazocin-8-yl)-N-(2-oxo-2-pyrrolidin-1-yl-ethyl)-propionamide] | 1 to 100 µM | 1 to 100 µM
17 | CCn1nnc(CNC(=O)NCc2ccc3c(c2)[C@H]2C[C@@H](N3)[C@H](O)CO2)n1 [Compound 39, 1-((2-ethyl-2H-tetrazol-5-yl)methyl)-3-(((2R,3S,6R)-3-hydroxy-2,3,4,6-tetrahydro-1H-2,6-methanobenzo[c][1,5]oxazocin-8-yl)methyl)urea] | 1 to 100 µM | 1 to 100 µM
18 | CCN1Cc2cc(CCC(=O)NCC(=O)N3CCC[C@H]3CO)ccc2NCCC1=O [Compound 34, 3-(5-Ethyl-4-oxo-1,2,3,4,5,6-hexahydro-benzo[b][1,5]diazocin-8-yl)-N-[2-((S)-2-hydroxymethyl-pyrrolidin-1-yl)-2-oxo-ethyl]-propionamide] | 1 to 100 µM | 1 to 100 µM
19 | O=C(NCC(=O)N1CCCC1c1cccnc1)NCc1ccc2c(c1)[C@H]1C[C@@H](N2)[C@H](O)CO1 (stereo partly drawn) [Compound 18, 1-((1R,9R,10S)-10-Hydroxy-12-oxa-8-aza-tricyclo[7.3.1.02,7]trideca-2(7),3,5-trien-4-ylmethyl)-3-[2-oxo-2-(2-pyridin-3-yl-pyrrolidin-1-yl)-ethyl]-urea] | 1 to 100 µM | 1 to 100 µM
20 | O=C(NCC(=O)N1CCCC1c1ccccc1C(F)(F)F)NCc1ccc2c(c1)[C@H]1C[C@@H](N2)[C@H](O)CO1 (stereo partly drawn) [Compound 4] | < 1 µM | < 1 µM
21 | C[C@H](NC(=O)CCc1ccc2c(c1)[C@H]1C[C@@H](N2)[C@H](O)CO1)C(=O)N1CCCC1 [Compound 6, 3-((2R,3S,6R)-3-hydroxy-2,3,4,6-tetrahydro-1H-2,6-methanobenzo[c][1,5]oxazocin-8-yl)-N—((S)-1-oxo-1-(pyrrolidin-1-yl)propan-2-yl)propanamide] | 1 to 100 µM | 1 to 100 µM
22 | CCN1Cc2cc(CNC(=O)NCC(=O)N(C)[C@H](C)c3ccccc3)ccc2NCCC1=O [Compound 35, (R)-2-(3-((5-ethyl-4-oxo-1,2,3,4,5,6-hexahydrobenzo[b][1,5]diazocin-8-yl)methyl)ureido)-N-methyl-N-(1-phenylethyl)acetamide] | 1 to 100 µM | 1 to 100 µM
23 | CCN1Cc2cc(CCC(=O)N[C@@H](CO)C(=O)N3CCCC3)ccc2NCCC1=O [Compound 29, 3-(5-Ethyl-4-oxo-1,2,3,4,5,6-hexahydro-benzo[b][1,5]diazocin-8-yl)-N—((S)-1-hydroxymethyl-2-oxo-2-pyrrolidin-1-yl-ethyl)-propionamide] | 1 to 100 µM | 1 to 100 µM
24 | CCN1Cc2cc(CNC(=O)NCC(=O)N3CCCC3c3ccccc3C(F)(F)F)ccc2NCCC1=O (stereo not drawn) [Compound 15, 1-(5-Ethyl-4-oxo-1,2,3,4,5,6-hexahydro-benzo[b][1,5]diazocin-8-ylmethyl)-3-{2-oxo-2-[2-(2-trifluoromethyl-phenyl)-pyrrolidin-1-yl]-ethyl}-urea] | 1 to 100 µM | 1 to 100 µM
25 | CSc1ccccc1[C@H]1CCCN1C(=O)CNC(=O)CCc1ccc2c(c1)[C@H]1C[C@@H](N2)[C@H](O)CO1 [Compound 5, 3-((1R,9R,10S)-10-Hydroxy-12-oxa-8-aza-tricyclo[7.3.1.02,7]trideca-2(7),3,5-trien-4-yl)-N-{2-[(R)-2-(2-methylsulfanyl-phenyl)-pyrrolidin-1-yl]-2-oxo-ethyl}-propionamide] | < 1 µM | < 1 µM
26 | O=C(NCC(=O)N1CCCC1c1ccccc1C(F)(F)F)NCc1ccc2c(c1)[C@@H]1C[C@H](N2)[C@H](O)CO1 (stereo partly drawn) [Compound 17, 1-(((2S,3S,6S)-3-hydroxy-2,3,4,6-tetrahydro-1H-2,6-methanobenzo[c][1,5]oxazocin-8-yl)methyl)-3-(2-oxo-2-(2-(2-(trifluoromethyl)phenyl)pyrrolidin-1-yl)ethyl)urea] | 1 to 100 µM | 1 to 100 µM
27 | 3-((1R,9R,10S)-10-Hydroxy-12-oxa-8-aza-tricyclo[7.3.1.02,7]trideca-2(7),3,5-trien-4-yl)-N-(2-oxo-2-pyrrolidin-1-yl-ethyl)-propionamide [Compound 26] | 1 to 100 µM | 1 to 100 µM

— patent US20170283425A1, “COMPOUNDS FOR THE INHIBITION OF CYCLOPHILINS AND USES THEREOF” (Merck Patent GmbH, priority 2016, published 2017)
